Data set [1] deals with 5HB, a recombinant protein containing 3 HR1 domains covalently attached to 2 HR2 domains. The note with it: competition with fluorescently labeled T108 probe (2 nM), 5HB 50 nM, 10 min preincubation + 30 min room temperature, duplicates. An excerpt: The RSV HR2 region (residues 476 to 524) is a 49-amino-acid sequence that has been extensively characterized (Fig. 1). HR2 is a largely unstructured peptide in aqueous solution folding into an α-helix upon binding to trimeric HR1 coiled coils ([20]). […] We reduced HR2 (aa 483 to 516) into three short overlapping subdomains (subdomains 1 to 3) (Fig. 1). These peptides were scanned for various stapling combinations. […] Far-UV circular dichroism (CD) spectropolarimetry was used to investigate the effect of stapling on the α-helical content of the peptides. […] To assess the propensity of the stapled peptides to hinder the formation of the postfusion six-helix bundle required for viral cell entry, we used a 5-helix bundle (5HB) biochemical fluorescence polarization (FP) competition assay as previously described ([21], [22]).
The coding sequence of 5HB was designed as described previously and de novo synthesized by Genscript ([21]). The HR1 (aa 126 to 182) and HR2 (aa 476 to 524) coding sequences from wild-type RSV A2 strain F ([36]) were codon optimized for overexpression in Escherichia coli and cloned at NdeI/BamHI restriction sites of pET-15b to generate the expression plasmid for 5HB. The 5HB expression construct was transformed into Escherichia coli BL21(DE3). Cells were grown at 37°C to an optical density at 600 nm of 0.8 followed by induction with isopropyl-1-thio-β-D-galactopyranoside at a final concentration of 0.5 mM for 12 to 15 h. Cells were harvested by centrifugation, washed twice with PBS, and resuspended in 20 ml of PBS (pH 7.4), 500 mM NaCl, and 1% Triton X-100 supplemented with complete protease inhibitor. Cell suspensions were disrupted by sonication. Cell debris was removed through ultracentrifugation at 18,000 × g for 1 h at 4°C, and clarified cell lysate was mixed with 1 ml of nickel-nitrilotriacetic acid (Ni-NTA) agarose beads (Qiagen) preequilibrated with 20 ml of lysis buffer. The suspension was agitated for 1 h at 4°C and loaded onto a 5-ml polypropylene column (Qiagen). The column was washed twice with 8 ml of PBS (pH 7.4), 500 mM NaCl, 1% Triton X-100, and 100 mM imidazole. Proteins were eluted with 5 × 500 μl of a buffer containing PBS (pH 7.4), 300 mM imidazole, and 500 mM NaCl. The imidazole was removed by dialysis, and protein purity was assessed by SDS-polyacrylamide gel electrophoresis followed by Coomassie blue staining. Protein concentration was determined with the Qubit 2.0 Fluorometer (Life Technologies).
The T108 ([12]) peptide probe was synthesized by standard SPPS procedures using HCTU as a coupling reagent as described above. A 10-μl volume of recombinant 5HB protein in FP buffer (20 mM PBS [pH 7.4], 500 mM NaCl, 0.01% [vol/vol] Tween 20, and 0.05 mg/ml bovine gamma globulin) was preincubated for 10 min at room temperature with 10 μl of the appropriate concentration of the inhibitor, after which 10 μl of fluorescein isothiocyanate (FITC)-T106 was added and further incubated for 30 min at room temperature. The final concentrations of protein and probe were 50 nM and 2 nM, respectively. The fluorescence polarization assay was performed in 384-well plates using a Spectramax Paradigm (Molecular Devices), using excitation and emission wavelengths of 485 nm and 535 nm, respectively. The acquisition time was 700 ms, and the read height was 1 mm. All experiments were performed in duplicate. […] In order to ensure robust fitting for some fits, r0 was kept constant at the value measured for the free tracer in buffer.

Data set [2] is described as follows: circular dichroism. The note with it: 10 mM phosphate; pH 7.5; 25 °C; 50 uM. (Circular dichroism is widely used to follow secondary structure.)

Bridge positions count the residues as written; N and C are the ends. Square brackets hold non-standard residues; d marks the D form. Peptide text beside a SMILES is read from it. R8 = C=CCCCCCC[C@@](C)(N)C(=O)O; R5 = C=CCCC[C@@](C)(N)C(=O)O; S5 = C=CCCC[C@](C)(N)C(=O)O

With `CC[C@H](C)[C@H](NC(=O)[C@H](CCC(=O)O)NC(C)=O)C(=O)N[C@@H](CO)C(=O)N[C@@H](CCC(N)=O)C(=O)N[C@H](C(=O)N[C@@H](CC(N)=O)C(=O)N[C@@H](CCC(=O)O)C(=O)N[C@@H](CCCCN)C(=O)N[C@H](C(=O)N[C@]1(C)CCCCCCC=CCCC[C@@](C)(C(N)=O)NC(=O)[C@H]([C@@H](C)CC)NC(=O)[C@H](Cc2ccccc2)NC(=O)[C@H](C)NC(=O)[C@H](CC(C)C)NC(=O)[C@H](CO)NC(=O)[C@H](CCC(N)=O)NC1=O)[C@@H](C)CC)C(C)C` [Peptide 2f] (Ac-EISQVNEKI[R8]QSLAFI[S5]-NH2; staple 10-17), the equilibrium dissociation constant (Kd) (as a rule, the equilibrium constant for the complex coming apart) in data set [1] turned out to be 363 ± 238 µM. In data set [2], this molecule yielded a helicity of 15.7%.

In the case of `CC[C@H](C)[C@H](NC(=O)[C@H](Cc1ccccc1)NC(=O)[C@H](C)NC(=O)[C@H](CC(C)C)NC(=O)[C@H](CO)NC(=O)[C@H](CCC(N)=O)NC(=O)[C@H](CCC(=O)O)NC(C)=O)C(=O)N[C@@]1(C)CCCC=CCCC[C@@](C)(C(=O)N[C@@H](CC(C)C)C(=O)N[C@@H](CC(C)C)C(=O)N[C@@H](Cc2c[nH]cn2)C(=O)N[C@@H](CC(N)=O)C(=O)N[C@H](C(N)=O)C(C)C)NC(=O)[C@H](CC(=O)O)NC(=O)[C@H](CO)NC(=O)[C@H](CCCCN)NC1=O` [Peptide 3b] (Ac-EQSLAFI[S5]KSD[S5]LLHNV-NH2; staple 8-12), in data set [1], the dissociation constant (Kd) is 55.9 ± 4 µM. This molecule yielded a helicity in data set [2] of 23%.

For `CC[C@H](C)[C@H](NC(=O)[C@H](Cc1ccccc1)NC(=O)[C@H](C)NC(=O)[C@H](CC(C)C)NC(=O)[C@H](CO)NC(=O)[C@H](CCC(N)=O)NC(=O)[C@H](CC(N)=O)NC(=O)[C@@H](NC(=O)[C@]1(C)CCCC=CCCC[C@](C)(NC(=O)[C@H](CO)NC(=O)[C@@H](NC(=O)[C@H](CCC(=O)O)NC(C)=O)[C@@H](C)CC)C(=O)N[C@@H](C(C)C)C(=O)N[C@@H](CC(N)=O)C(=O)N[C@@H](CCC(=O)O)C(=O)N1)[C@@H](C)CC)C(=O)N[C@@H](CCCNC(=N)N)C(N)=O` [Peptide 2a] (Ac-EIS[S5]VNE[S5]INQSLAFIR-NH2; staple 4-8), the Kd in data set [1] was determined as 405 ± 121 µM. The same molecule came in with a helicity in data set [2] of 5.2%.

For `CC[C@H](C)[C@H](NC(=O)[C@H](CCCCN)NC(=O)[C@]1(C)CCCC=CCCC[C@](C)(NC(=O)[C@@H](NC(=O)[C@H](CO)NC(=O)[C@H](C)NC(=O)[C@H](CC(=O)O)NC(=O)[C@H](Cc2ccccc2)NC(=O)[C@H](CCC(=O)O)NC(=O)[C@H](CC(=O)O)NC(=O)[C@H](CO)NC(=O)[C@@H]2CCCN2C(=O)[C@H](Cc2ccccc2)NC(=O)[C@H](CCC(=O)O)NC(C)=O)[C@@H](C)CC)C(=O)N[C@@H](CCC(N)=O)C(=O)N[C@@H](C(C)C)C(=O)N[C@@H](CC(N)=O)C(=O)N1)C(=O)N[C@@H](CC(N)=O)C(N)=O` [Peptide 1g] (Ac-EFPSDEFDASI[S5]QVN[S5]KIN-NH2; staple 12-16), the Kd in data set [1] was 191 ± 19 µM. This molecule displayed a helicity in data set [2] of 46.8%.

Regarding `CC[C@H](C)[C@H](NC(=O)[C@H](Cc1ccccc1)NC(=O)[C@]1(C)CCCC=CCCC[C@](C)(NC(=O)[C@@H](NC(=O)[C@H](CCCCN)NC(=O)[C@H](CCC(=O)O)NC(=O)[C@H](CC(N)=O)NC(=O)[C@@H](NC(=O)[C@H](CCC(N)=O)NC(=O)[C@H](CO)NC(=O)[C@@H](NC(=O)[C@H](CCC(=O)O)NC(C)=O)[C@@H](C)CC)C(C)C)[C@@H](C)CC)C(=O)N[C@@H](CCC(N)=O)C(=O)N[C@@H](CO)C(=O)N[C@@H](CC(C)C)C(=O)N1)C(=O)N[C@@H](CCCNC(=N)N)C(N)=O` [Peptide 2b] (Ac-EISQVNEKI[S5]QSL[S5]FIR-NH2; staple 10-14), the dissociation constant Kd in data set [1] worked out at 369 ± 99 µM. For the same molecule, in data set [2], the helicity turned out to be 35.8%.

For `CC[C@H](C)[C@H](NC(=O)[C@H](Cc1ccccc1)NC(=O)[C@]1(C)CCCC=CCCCCCC[C@@](C)(NC(=O)[C@H](CC(N)=O)NC(=O)[C@@H](NC(=O)[C@H](CCC(N)=O)NC(=O)[C@H](CO)NC(=O)[C@@H](NC(=O)[C@H](CCC(=O)O)NC(C)=O)[C@@H](C)CC)C(C)C)C(=O)N[C@@H](CCCCN)C(=O)N[C@@H]([C@@H](C)CC)C(=O)N[C@@H](CC(N)=O)C(=O)N[C@@H](CCC(N)=O)C(=O)N[C@@H](CO)C(=O)N[C@@H](CC(C)C)C(=O)N1)C(=O)N[C@@H](CCCNC(=N)N)C(N)=O` [Peptide 2e] (Ac-EISQVN[R8]KINQSL[S5]FIR-NH2; staple 7-14), the Kd in data set [1] came out at 76 ± 4 µM. For the same molecule, in data set [2], the helicity stood at 27.4%.

Consider `CC[C@H](C)[C@H](NC(=O)[C@H](Cc1ccccc1)NC(=O)[C@H](C)NC(=O)[C@H](CC(C)C)NC(=O)[C@H](CO)NC(=O)[C@H](CCC(N)=O)NC(=O)[C@H](CCC(=O)O)NC(C)=O)C(=O)N[C@@H](CCCNC(=N)N)C(=O)N[C@@H](CCCCN)C(=O)N[C@@H](CO)C(=O)N[C@@H](CC(=O)O)C(=O)N[C@@H](CCC(=O)O)C(=O)N[C@@H](CC(C)C)C(=O)N[C@@H](CC(C)C)C(=O)N[C@@H](Cc1c[nH]cn1)C(=O)N[C@@H](CC(N)=O)C(=O)N[C@H](C(N)=O)C(C)C` [Peptide 3] (Ac-EQSLAFIRKSDELLHNV-NH2), for which the dissociation constant Kd in data set [1] is more than 10.8 µM. In data set [2], this molecule registered a helicity of 5.9%.

As to `CC[C@H](C)[C@H](NC(=O)[C@H](Cc1ccccc1)NC(=O)[C@H](C)NC(=O)[C@H](CC(C)C)NC(=O)[C@H](CO)NC(=O)[C@]1(C)CCCC=CCCC[C@@](C)(NC(=O)[C@H](CCC(=O)O)NC(=O)[C@H](CC(N)=O)NC(=O)[C@@H](NC(=O)[C@H](CCC(N)=O)NC(=O)[C@H](CO)NC(=O)[C@@H](NC(=O)[C@H](CCC(=O)O)NC(C)=O)[C@@H](C)CC)C(C)C)C(=O)N[C@@H]([C@@H](C)CC)C(=O)N[C@@H](CC(N)=O)C(=O)N1)C(=O)N[C@@H](CCCNC(=N)N)C(N)=O` [Peptide 2c] (Ac-EISQVNE[R5]IN[S5]SLAFIR-NH2; staple 8-11), the equilibrium dissociation constant (Kd) in data set [1] was 125 ± 16 µM. For the same molecule, in data set [2], the helicity amounted to 13.8%.

Turning to `CC[C@H](C)[C@H](NC(=O)[C@H](CCCCN)NC(=O)[C@H](CCC(=O)O)NC(=O)[C@H](CC(N)=O)NC(=O)[C@@H](NC(=O)[C@H](CCC(N)=O)NC(=O)[C@H](CO)NC(=O)[C@@H](NC(=O)[C@H](CO)NC(=O)[C@]1(C)CCCC=CCCC[C@](C)(NC(=O)[C@H](CO)NC(=O)[C@@H]2CCCN2C(=O)[C@H](Cc2ccccc2)NC(=O)[C@H](CCC(=O)O)NC(C)=O)C(=O)N[C@@H](CCC(=O)O)C(=O)N[C@@H](Cc2ccccc2)C(=O)N[C@@H](CC(=O)O)C(=O)N1)[C@@H](C)CC)C(C)C)C(=O)N[C@@H](CC(N)=O)C(N)=O` [Peptide 1e] (Ac-EFPS[S5]EFD[S5]SISQVNEKIN-NH2; staple 5-9), the dissociation constant Kd in data set [1] amounted to 15 ± 3 µM. The same molecule returned a helicity in data set [2] of 35.5%.
